Experimental data published in US20100168031A1, “Lat peptides and their use in assays for identifying immunosuppressants” (priority 2000, published 2010).
Numbered stars: 1 amine (or outer) side, 2 acyl side, 3 side chain; on linkers, the order of the positions; unused ones are H or OH. Peptide text beside a SMILES is read from it. Suc = O=C(CCC(=O)[*:2])[*:1]

Molecular target: T1, ZAP-70 (Homo sapiens, UniProt P43403)
T1 construct: A nucleic acid encoding full-length human ZAP-70 (GenBank #L05148); hexa-histidine (N); made in house; host or cells: Sf9 insect cells (baculovirus)
T1 sequence (P43403 1-619): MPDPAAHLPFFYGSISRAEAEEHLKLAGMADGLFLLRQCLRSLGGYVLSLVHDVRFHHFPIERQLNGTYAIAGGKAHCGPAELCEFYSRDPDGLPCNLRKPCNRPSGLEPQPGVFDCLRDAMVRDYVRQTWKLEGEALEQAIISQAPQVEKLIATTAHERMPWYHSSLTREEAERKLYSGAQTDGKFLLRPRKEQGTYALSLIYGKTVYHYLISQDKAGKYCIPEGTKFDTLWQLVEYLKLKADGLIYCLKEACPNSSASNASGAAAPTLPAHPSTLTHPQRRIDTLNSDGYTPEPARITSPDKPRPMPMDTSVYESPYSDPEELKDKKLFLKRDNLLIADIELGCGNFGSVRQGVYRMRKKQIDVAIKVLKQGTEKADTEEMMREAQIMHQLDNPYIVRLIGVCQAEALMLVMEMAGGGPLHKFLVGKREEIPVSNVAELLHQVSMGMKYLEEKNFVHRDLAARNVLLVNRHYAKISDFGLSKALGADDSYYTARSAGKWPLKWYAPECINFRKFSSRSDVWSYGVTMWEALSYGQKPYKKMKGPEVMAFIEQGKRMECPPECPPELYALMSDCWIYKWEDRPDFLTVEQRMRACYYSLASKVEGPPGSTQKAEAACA
Test: Phosphorylation of compounds of formula I by ZAP-70 measured in a competitive assay (Example C5)
Format: biochemical
Settings: non-biotinylated peptide competing with biotinylated SEQ ID NO:12; Lck-activated ZAP-70, PP2 added, 4 hours at RT; read-out: IC50, inhibition of the phosphorylation of SEQ ID NO:12 by ZAP-70
Procedure: 80 nM ZAP-70 are incubated with 80 nM Lck and 4 μM ATP in ZAP-70 kinase buffer for 1 hour at RT in a siliconized polypropylene tube. Then, the selective Lck inhibitor PP2 (see Example C2) is added (final concentration 1.2 μM) and incubated for further 10 min.
Ten μl of this solution is mixed with 10 μl biotinylated compound of e.g. SEQ ID NO:12 (1 μM) and 20 μl of the non-biotinylated peptides of compounds of formula I, e.g. by SEQ ID NO:21, SEQ ID NO:15, SEQ ID NO:16 or SEQ ID NO:17 (serial dilution 0.28 to 200 μM) and incubated for 4 hours at RT. Termination of the kinase reaction, detection phase and determination of fluorescence is performed as described in Example C1.

| Compound | IC50 |
| --- | --- |
| Ac-DYENLQELN-OH [SEQ ID NO:15, acetyl-Asp-Tyr-Glu-Asn-Leu-Gln-Glu-Leu-Asn-OH] | 0.6 to 21 µM |
| CC(C)C[C@H](NC(=O)[C@H](CC(N)=O)NC(=O)[C@H](CCC(=O)O)NC(=O)[C@H](Cc1ccc(O)cc1)NC(=O)[C@H](CC(=O)O)NC(=O)CCC(=O)O)C(N)=O [SEQ ID NO:22, HOOC-CH2-CH2-CO-Asp-Tyr-Glu-Asn-Leu-NH2] (Suc-DYENL-NH2) | 0.6 to 21 µM |
| Ac-DYENL-NH2 [SEQ ID NO:17, acetyl-Asp-Tyr-Glu-Asn-Leu-NH2] | 0.6 to 21 µM |
| CC(C)C[C@H](NC(=O)[C@H](Cc1ccccc1)NC(=O)[C@H](CCC(=O)O)NC(=O)[C@H](Cc1ccc(O)cc1)NC(=O)[C@H](CC(=O)O)NC(=O)CCC(=O)O)C(N)=O [SEQ ID NO:24, HOOC-CH2-CH2-CO-Asp-Tyr-Glu-Phe-Leu-NH2] (Suc-DYEFL-NH2) | 0.6 to 21 µM |
| Ac-EEGAPDYENLQELN-OH [SEQ ID NO:21, acetyl-Glu-Glu-Gly-Ala-Pro-Asp-Tyr-Glu-Asn-Leu-Gln-Glu-Leu-Asn-OH] | 0.6 to 21 µM |
| CC(C)C[C@H](NC(=O)[C@H](CC(N)=O)NC(=O)[C@H](CCC(=O)O)NC(=O)[C@H](Cc1ccc(O)cc1)NC(=O)[C@H](CC(=O)O)NCC(=O)O)C(N)=O [SEQ ID NO:23, HOOC-CH2-Asp-Tyr-Glu-Asn-Leu-NH2] | 0.6 to 21 µM |
| Ac-EEGAPDYENL-NH2 [SEQ ID NO:16, acetyl-Glu-Glu-Gly-Ala-Pro-Asp-Tyr-Glu-Asn-Leu-NH2] | 0.6 to 21 µM |
